Experimental data: PubChem BioAssay (NCI)
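Compound exposure: 48 hours, 5 concentrations, 96-well plates. Here, GI50 denotes the concentration required for 50% inhibition of growth. Definition used: TGI = concentration required for complete inhibition of growth.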

Assays:
Assay in all cases: growth of human tumour cells (NCI), 48 h
786-0 renal = system: 786-0 renal
A498 renal = system: A498 renal
A549 NSCLC = system: A549 NSCLC
ACHN renal = system: ACHN renal
BT-549 breast = system: BT-549 breast
CAKI-1 renal = system: CAKI-1 renal
CCRF-CEM leukemia = system: CCRF-CEM leukemia
COLO 205 colon = system: COLO 205 colon
DU-145 prostate = system: DU-145 prostate
EKVX NSCLC = system: EKVX NSCLC
HCC-2998 colon = system: HCC-2998 colon
HCT-116 colon = system: HCT-116 colon
HCT-15 colon = system: HCT-15 colon
HL-60(TB) leukemia = system: HL-60(TB) leukemia
HOP-62 NSCLC = system: HOP-62 NSCLC
HOP-92 NSCLC = system: HOP-92 NSCLC
HS 578T breast = system: HS 578T breast
HT29 colon = system: HT29 colon
IGROV1 ovarian = system: IGROV1 ovarian
K-562 leukemia = system: K-562 leukemia
KM12 colon = system: KM12 colon
LOX IMVI melanoma = system: LOX IMVI melanoma
M14 melanoma = system: M14 melanoma
MALME-3M melanoma = system: MALME-3M melanoma
MCF7 breast = system: MCF7 breast
MDA-MB-231 breast = system: MDA-MB-231 breast
MDA-MB-435 = system: MDA-MB-435
MOLT-4 leukemia = system: MOLT-4 leukemia
NCI-H226 lung = system: NCI-H226 lung
NCI-H23 lung = system: NCI-H23 lung
NCI-H460 lung = system: NCI-H460 lung
NCI-H522 lung = system: NCI-H522 lung
NCI/ADR-RES ovarian = system: NCI/ADR-RES ovarian
OVCAR-3 ovarian = system: OVCAR-3 ovarian
OVCAR-4 ovarian = system: OVCAR-4 ovarian
OVCAR-5 ovarian = system: OVCAR-5 ovarian
OVCAR-8 ovarian = system: OVCAR-8 ovarian
PC-3 prostate = system: PC-3 prostate
RPMI-8226 leukemia = system: RPMI-8226 leukemia
RXF 393 renal = system: RXF 393 renal
SF-268 CNS = system: SF-268 CNS
SF-295 CNS = system: SF-295 CNS
SF-539 CNS = system: SF-539 CNS
SK-MEL-2 melanoma = system: SK-MEL-2 melanoma
SK-MEL-28 melanoma = system: SK-MEL-28 melanoma
SK-MEL-5 melanoma = system: SK-MEL-5 melanoma
SK-OV-3 ovarian = system: SK-OV-3 ovarian
SN12C renal = system: SN12C renal
SNB-19 CNS = system: SNB-19 CNS
SNB-75 CNS = system: SNB-75 CNS
SR leukemia = system: SR leukemia
SW-620 colon = system: SW-620 colon
T-47D breast = system: T-47D breast
TK-10 renal = system: TK-10 renal
U251 CNS = system: U251 CNS
UACC-257 melanoma = system: UACC-257 melanoma
UACC-62 melanoma = system: UACC-62 melanoma
UO-31 renal = system: UO-31 renal

For `NCCCN1CCN(CCCNc2nc3ccccc3c3[nH]c4ccccc4c23)CC1`, the GI50 (786-0 renal) was 421 nM, the TGI (786-0 renal) was 2940 nM and the GI50 (A498 renal) was 1620 nM. For the same compound, the TGI (A498 renal) was 3930 nM, the GI50 (A549 NSCLC) was 323 nM and the TGI (A549 NSCLC) was 2370 nM. It also gave a GI50 (ACHN renal) of 378 nM, a TGI (ACHN renal) of 3750 nM and a GI50 (BT-549 breast) of 2120 nM. It also gave a TGI (BT-549 breast) of 5720 nM, a GI50 (CAKI-1 renal) of 414 nM and a TGI (CAKI-1 renal) of 3450 nM. It also gave a GI50 (CCRF-CEM leukemia) of 385 nM, a GI50 (COLO 205 colon) of 214 nM and a TGI (COLO 205 colon) of 1050 nM. For the same compound, the GI50 (DU-145 prostate) was 299 nM, the TGI (DU-145 prostate) was 7830 nM and the GI50 (EKVX NSCLC) was 1310 nM. It also gave a TGI (EKVX NSCLC) of 6220 nM, a GI50 (HCC-2998 colon) of 89.5 nM and a TGI (HCC-2998 colon) of 758 nM. It also gave a GI50 (HCT-116 colon) of 337 nM, a TGI (HCT-116 colon) of 2700 nM and a GI50 (HCT-15 colon) of 436 nM. The TGI (HCT-15 colon) was 7830 nM, the GI50 (HL-60(TB) leukemia) was 425 nM and the TGI (HL-60(TB) leukemia) was 3260 nM. It also gave a GI50 (HOP-62 NSCLC) of 260 nM, a TGI (HOP-62 NSCLC) of 1080 nM and a GI50 (HOP-92 NSCLC) of 346 nM. For the same compound, the TGI (HOP-92 NSCLC) was 2100 nM, the GI50 (HS 578T breast) was 521 nM and the TGI (HS 578T breast) was 2890 nM. The GI50 (HT29 colon) was 212 nM, the TGI (HT29 colon) was 1990 nM and the GI50 (IGROV1 ovarian) was 638 nM. The TGI (IGROV1 ovarian) was 4380 nM, the GI50 (K-562 leukemia) was 71.5 nM and the TGI (K-562 leukemia) was 43100 nM. The GI50 (KM12 colon) was 415 nM, the GI50 (LOX IMVI melanoma) was 409 nM and the TGI (LOX IMVI melanoma) was 1810 nM. The GI50 (M14 melanoma) was 1270 nM, the TGI (M14 melanoma) was 2760 nM and the GI50 (MALME-3M melanoma) was 2300 nM. The TGI (MALME-3M melanoma) was 4960 nM, the GI50 (MCF7 breast) was 181 nM and the TGI (MCF7 breast) was 1330 nM. For the same compound, the GI50 (MDA-MB-231 breast) was 456 nM, the TGI (MDA-MB-231 breast) was 1720 nM and the GI50 (MDA-MB-435) was 651 nM. It also gave a TGI (MDA-MB-435) of 2410 nM, a GI50 (MOLT-4 leukemia) of 155 nM and a TGI (MOLT-4 leukemia) of 4020 nM. It also gave a GI50 (NCI-H226 lung) of 442 nM, a TGI (NCI-H226 lung) of 1100 nM and a GI50 (NCI-H23 lung) of 387 nM. It also gave a TGI (NCI-H23 lung) of 1440 nM, a GI50 (NCI-H460 lung) of 320 nM and a TGI (NCI-H460 lung) of 1420 nM. For the same compound, the GI50 (NCI-H522 lung) was 242 nM, the TGI (NCI-H522 lung) was 1310 nM and the GI50 (NCI/ADR-RES ovarian) was 3100 nM. It also gave a TGI (NCI/ADR-RES ovarian) of 22000 nM, a GI50 (OVCAR-3 ovarian) of 659 nM and a TGI (OVCAR-3 ovarian) of 4580 nM. The GI50 (OVCAR-4 ovarian) was 414 nM, the TGI (OVCAR-4 ovarian) was 1770 nM and the GI50 (OVCAR-5 ovarian) was 292 nM. It also gave a TGI (OVCAR-5 ovarian) of 1480 nM, a GI50 (OVCAR-8 ovarian) of 131 nM and a TGI (OVCAR-8 ovarian) of 3880 nM. The GI50 (PC-3 prostate) was 437 nM, the TGI (PC-3 prostate) was 2980 nM and the GI50 (RPMI-8226 leukemia) was 241 nM. The TGI (RPMI-8226 leukemia) was 817 nM, the GI50 (RXF 393 renal) was 429 nM and the TGI (RXF 393 renal) was 1310 nM. It also gave a GI50 (SF-268 CNS) of 316 nM, a TGI (SF-268 CNS) of 1940 nM and a GI50 (SF-295 CNS) of 474 nM. The TGI (SF-295 CNS) was 1830 nM, the GI50 (SF-539 CNS) was 438 nM and the TGI (SF-539 CNS) was 1500 nM. The GI50 (SK-MEL-2 melanoma) was 567 nM, the TGI (SK-MEL-2 melanoma) was 1100 nM and the GI50 (SK-MEL-28 melanoma) was 888 nM. It also gave a TGI (SK-MEL-28 melanoma) of 2320 nM, a GI50 (SK-MEL-5 melanoma) of 1140 nM and a TGI (SK-MEL-5 melanoma) of 2530 nM. For the same compound, the GI50 (SK-OV-3 ovarian) was 6700 nM, the TGI (SK-OV-3 ovarian) was 41400 nM and the TGI (SN12C renal) was 1050 nM. For the same compound, the GI50 (SNB-19 CNS) was 340 nM, the TGI (SNB-19 CNS) was 2070 nM and the GI50 (SNB-75 CNS) was 691 nM. It also gave a TGI (SNB-75 CNS) of 1990 nM, a GI50 (SR leukemia) of 352 nM and a TGI (SR leukemia) of 71900 nM. It also gave a GI50 (SW-620 colon) of 326 nM, a TGI (SW-620 colon) of 7660 nM and a GI50 (T-47D breast) of 561 nM. For the same compound, the TGI (T-47D breast) was 6850 nM, the GI50 (TK-10 renal) was 810 nM and the TGI (TK-10 renal) was 11100 nM. The GI50 (U251 CNS) was 373 nM, the TGI (U251 CNS) was 4540 nM and the GI50 (UACC-257 melanoma) was 2510 nM. The TGI (UACC-257 melanoma) was 5720 nM, the GI50 (UACC-62 melanoma) was 541 nM and the TGI (UACC-62 melanoma) was 1100 nM. The GI50 (UO-31 renal) was 771 nM and the TGI (UO-31 renal) was 11800 nM.
